Measured values published in PMC9133036 (Nature Communications, 2022).
Where a chain is given by its changes, count along the chain named. Where “and” joins values, the source holds several entries; their conditions need not be identical. Identical values can stand only once. One block for each molecule: values may come before it.

Key:
Format in all cases: cell-based
OX1R A127T = biological target: T1, OX1R A127T (Homo sapiens, UniProt O43613, A127T); test: IP accumulation assay, OX1R A127T
T1 construct: FLAG; expressed in transfected cells; host or cells: HEK293
T1 sequence (O43613 1-425 A127T): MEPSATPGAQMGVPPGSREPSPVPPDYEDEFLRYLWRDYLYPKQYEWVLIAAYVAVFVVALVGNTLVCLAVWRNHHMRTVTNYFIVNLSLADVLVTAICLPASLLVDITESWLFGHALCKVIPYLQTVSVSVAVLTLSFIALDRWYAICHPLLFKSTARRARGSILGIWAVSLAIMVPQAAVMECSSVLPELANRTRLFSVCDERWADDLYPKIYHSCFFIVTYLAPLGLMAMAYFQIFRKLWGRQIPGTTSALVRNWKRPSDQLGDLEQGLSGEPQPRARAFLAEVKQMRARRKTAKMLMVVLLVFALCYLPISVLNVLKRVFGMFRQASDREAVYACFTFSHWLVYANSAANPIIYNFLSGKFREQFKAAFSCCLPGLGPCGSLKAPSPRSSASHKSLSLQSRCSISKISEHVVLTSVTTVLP
Excerpt: (§1) The IP assay was adapted from a prior precedent. HEK293 cells were maintained in DMEM-high glucose (Millipore Sigma) supplemented with 5% fetal bovine serum (Corning) and penicillin-streptomycin (Millipore Sigma). Receptor constructs used were the full-length wild-type (or mutant) human OX1R and OX2R sequences cloned into pCDNA3. To enhance the Emax in the IP assay, a plasmid encoding full-length human Gαq subunit[66] was co-transfected into HEK293 cells with plasmids encoding orexin receptor constructs using Lipofectamine 3000 (Thermo Fisher). 24 h after transfection, the cells were plated on poly-D-lysine coated (Millipore Sigma) tissue culture-treated 96 well white plates with clear bottoms (Perkin Elmer) at 30,000 cells per well in Inositol-free DMEM (MP Biomedicals) supplemented with 5% fetal bovine serum, 4 mM L-glutamine (Millipore Sigma), penicillin-streptomycin, and about 5 uCi (5 ul) per ml myo-[2-3H] inositol (Perkin Elmer). The following day, the media was replaced with agonists that were diluted in HBSS (Millipore Sigma) containing 10 mM lithium chloride (Millipore Sigma) and incubated at 37 °C for 45 min. Then agonists were removed and cells were lysed on ice for 30 min with 10 mM formic acid (Millipore Sigma). 1.25 mg of poly-lysine coated YSI SPA beads (Perkin Elmer) was added to each well. The plates were mixed on an orbital shaker for 30 min. The plates were read on a MicroBeta scintillation counter (Perkin Elmer) the following day. IP accumulation assays on different constructs were performed in n ≥ 3 independent experiments (each done in duplicate), where n is shown in Supplementary Table 2.

OX1R S103T/A127T = biological target: T2, OX1R S103T/A127T (Homo sapiens, UniProt O43613, A127T/S103T); test: IP accumulation assay, OX1R S103T/A127T
T2 construct: FLAG; expressed in transfected cells; host or cells: HEK293
T2 sequence (O43613 1-425 S103T/A127T): T1 sequence (O43613 1-425 A127T) with S103T
Excerpt: as §1

OX2R H350A = biological target: T3, OX2R H350A (Homo sapiens, UniProt O43614, H350A); test: β-arrestin PathHunter assay, OX2R H350A; settings: β-arrestin recruitment
T3 construct: expressed in transfected cells; host or cells: CHO-K1 stably expressing EA β-arrestin2
Protocol: (§2) β-Arrestin recruitment activity was measured by using the PathHunter system (DiscoveRX) according to the manufacturer’s instruction. Receptor constructs used were the full-length wild-type (or mutant) human OX2R sequences cloned into pCMV-ProLink (DiscoveRX). CHO-K1 cells stably expressing EA β-arrestin2 (DiscoveRX) were plated on 384 well white plates (Thermo Fisher) at 4000 cells/well in HamF12 (Wako Pure Chemical Industries) supplemented with 10% fetal bovine serum (Corning) and penicillin-streptomycin (Wako Pure Chemical Industries) and incubated overnight at 37 °C under 5% CO2. Cells were transfected with plasmids encoding wild type or each mutant ProLink-tagged human OX2R using FuGENE HD (Promega). […] Detection reagent was added and incubated for 1 h at room temperature. Luminescent signal was detected using an EnVision plate reader (PerkinElmer). β-arrestin assays on different constructs were performed in two or three independent experiments (each done in quadruplicate). Dose response curves (shown in Supplementary Fig. 8) were fitted to the three-parameter model ‘log(agonist) vs response’ in GraphPad Prism to determine pEC50 values.

OX2R Y354A = biological target: T4, OX2R Y354A (Homo sapiens, UniProt O43614, Y354A); test: β-arrestin PathHunter assay, OX2R Y354A; settings: for beta-arrestin recruitment fold change: Y354A, listed as OxB
T4 construct: expressed in transfected cells; host or cells: CHO-K1 cells stably expressing EA β-arrestin2 (DiscoveRX), transiently transfected with pCMV-ProLink OX2R
Protocol: as §2

OX2R T135A = biological target: T5, OX2R T135A (Homo sapiens, UniProt O43614, T135A); test: IP accumulation assay, OX2R T135A
T5 construct: FLAG; expressed in transfected cells; host or cells: HEK293
Excerpt: as §1, with “1.25 mg of poly-lysine coated YSI SPA beads (Perkin Elmer) was added to each well. The plates were mixed on an orbital shaker for 30 min.” left out, “IP accumulation assays on different constructs were performed in n ≥ 3 independent experiments (each done in duplicate), where n is shown in Supplementary Table 2.” left out

[1] = 0.75 h, TAK-925 conc (log, M) -4.00
[2] = 0.75 h, TAK-925 conc (log, M) -4.48
[3] = 0.75 h, TAK-925 conc (log, M) -4.95
[4] = 0.75 h, TAK-925 conc (log, M) -5.43
[5] = 0.75 h, TAK-925 conc (log, M) -5.91
[6] = 0.75 h, TAK-925 conc (log, M) -6.39
[7] = 0.75 h, TAK-925 conc (log, M) -7.82

T4 sequence (O43614 whole entry Y354A): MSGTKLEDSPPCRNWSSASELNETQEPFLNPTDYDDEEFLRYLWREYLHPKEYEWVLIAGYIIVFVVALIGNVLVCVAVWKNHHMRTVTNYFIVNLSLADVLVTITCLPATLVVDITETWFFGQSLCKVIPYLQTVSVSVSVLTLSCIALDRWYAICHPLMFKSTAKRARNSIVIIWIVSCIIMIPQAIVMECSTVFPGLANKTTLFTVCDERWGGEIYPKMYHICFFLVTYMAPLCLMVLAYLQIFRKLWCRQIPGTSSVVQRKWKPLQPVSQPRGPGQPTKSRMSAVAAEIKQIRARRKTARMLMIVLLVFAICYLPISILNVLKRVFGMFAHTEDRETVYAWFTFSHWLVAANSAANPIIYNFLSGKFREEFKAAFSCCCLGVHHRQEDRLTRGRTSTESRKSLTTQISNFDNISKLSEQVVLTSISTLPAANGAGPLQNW
T4 sequence (P32121 whole entry partner): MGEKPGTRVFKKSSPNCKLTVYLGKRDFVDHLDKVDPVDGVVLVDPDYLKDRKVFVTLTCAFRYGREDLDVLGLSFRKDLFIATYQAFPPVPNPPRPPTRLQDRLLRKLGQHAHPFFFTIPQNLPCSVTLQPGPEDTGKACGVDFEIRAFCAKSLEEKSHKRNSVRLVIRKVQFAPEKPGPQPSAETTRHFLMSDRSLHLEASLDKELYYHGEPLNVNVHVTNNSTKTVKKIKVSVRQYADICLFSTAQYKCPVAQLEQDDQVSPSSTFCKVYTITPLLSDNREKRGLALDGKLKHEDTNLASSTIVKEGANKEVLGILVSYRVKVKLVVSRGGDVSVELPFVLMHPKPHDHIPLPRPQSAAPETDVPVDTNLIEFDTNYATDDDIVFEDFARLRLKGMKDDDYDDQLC
T5 sequence (O43614 whole entry T135A): as the sequence (O43614 whole entry Y354A) above, with T135A, A354Y counted along it
T3 sequence (O43614 whole entry H350A): as the sequence (O43614 whole entry Y354A) above, with H350A, A354Y counted along it

activation at 100 µM (OX1R A127T; [1]): 109%
activation at 33.1 µM (OX1R A127T; [2]): 92.5%
activation at 11.2 µM (OX1R A127T; [3]): 78.5%
activation at 3.72 µM (OX1R A127T; [4]): 56%
activation at 1.23 µM (OX1R A127T; [5]): 27.7%
activation at 0.407 µM (OX1R A127T; [6]): 18.7%
activation at 0.0457 µM (OX1R A127T; 0.75 h, TAK-925 conc (log, M) -7.34): 12%
activation at 0.0151 µM (OX1R A127T; [7]): 13.1%
activation at 0.0017 µM (OX1R A127T; 0.75 h, TAK-925 conc (log, M) -8.77): 0%
EC50 (OX1R A127T; IP accumulation): 4700 nM
% IP accumulation (OX1R A127T; TAK-925 conc (log, M) -8.77): 0.00%
Emax (OX1R A127T; relative to OX1R S103T/A127T/TAK-925): 100
activation at 100 µM (OX1R S103T/A127T; [1]): 90.6%
activation at 33.1 µM (OX1R S103T/A127T; [2]): 102%
activation at 11.2 µM (OX1R S103T/A127T; [3]): 99.6%
activation at 3.72 µM (OX1R S103T/A127T; [4]): 94.2%
activation at 1.23 µM (OX1R S103T/A127T; [5]): 81.6%
activation at 0.407 µM (OX1R S103T/A127T; [6]): 58.2%
activation at 0.138 µM (OX1R S103T/A127T; 0.75 h, TAK-925 conc (log, M) -6.86): 26.9%
activation at 0.0151 µM (OX1R S103T/A127T; [7]): 6.39%
EC50 (OX1R S103T/A127T; IP accumulation): 300 nM
Emax (OX1R S103T/A127T; normalized to OX1R S103T/A127T Emax): 100
EC50 (OX2R H350A): 4800 nM
EC50 (OX2R Y354A; β-arrestin recruitment): 2400 nM
EC50 (OX2R T135A; IP accumulation): 580 nM
Emax (OX2R T135A; relative to OX2R WT/TAK-925): 90
Molecule: COC(=O)N1CCC[C@H](NS(C)(=O)=O)[C@@H]1CO[C@H]1CC[C@@H](c2ccccc2)CC1 [TAK-925, methyl (2R,3S)−3-[(methylsulfonyl)amino]−2-{[(cis−4-phenylcyclohexyl)oxy]methyl}piperidine-1-carboxylate]

Molecule: orexin B
beta-arrestin recruitment fold change (OX2R Y354A; OxB concentration -6.00 (log, M)): 9.833 fold and 7.839 fold and 7.764 fold and 5.538 fold
beta-arrestin recruitment fold change (OX2R Y354A; OxB concentration -6.52 (log, M)): 8.222 fold and 8.331 fold and 7.995 fold and 7.023 fold
beta-arrestin recruitment fold change (OX2R Y354A; OxB concentration -7.00 (log, M)): 7.061 fold and 6.164 fold and 4.831 fold and 5.998 fold
beta-arrestin recruitment fold change (OX2R Y354A; OxB concentration -7.52 (log, M)): 3.021 fold and 4.546 fold and 4.264 fold and 4.947 fold
beta-arrestin recruitment fold change (OX2R Y354A; OxB concentration -8.00 (log, M)): 1.570 fold and 2.249 fold and 1.723 fold and 2.390 fold
beta-arrestin recruitment fold change (OX2R Y354A; OxB concentration -8.52 (log, M)): 0.925 fold and 1.624 fold and 1.133 fold and 1.227 fold
beta-arrestin recruitment fold change (OX2R Y354A; OxB concentration -9.00 (log, M)): 0.997 fold and 0.922 fold and 1.331 fold and 1.082 fold
beta-arrestin recruitment fold change (OX2R Y354A; OxB concentration -10.00 (log, M)): 1.135 fold and 1.096 fold and 1.298 fold and 1.060 fold
